The values below are quoted from earlier work in US7402323B2, “Compositions and methods for treating skin conditions” (AkPharma, Inc., priority 2002, dated 2008).

Structures are written as SMILES.

In one data set the test system is stratum corneum. The note with it: normal thickness 14 cells.
The subject of data set [1] is cultured neurons and astrocytes. The settings on record: compared with control cultures or with cultures supplemented with calcium or glycerophosphate alone.

As to `CC1=C(/C=C/C(C)=C/C=C/C(C)=C/C(=O)O)C(C)(C)CCC1` [Retinoic acid], in the data set on stratum corneum, the “stratum corneum thickness after treatment” value is on record as 5 cells.
For `O=P([O-])([O-])OCC(O)CO.[Ca+2]` (stereo not drawn) [calcium glycerophosphate, 1,2,3-propanetriol, mono(dihydrogen phosphate) calcium salt (1:1)], the solubility in water entry is recorded as “highly soluble”. Besides, in data set [1], the “number of cells in supplemented cultures” value is “more cells”.
